Patent US20250388589A1, “TRICYCLIC HETEROCYCLIC DERIVATIVES, COMPOSITIONS AND USES THEREOF” (Danatlas Pharmaceuticals Co., Ltd., priority 2022, published 2025)

Key:
[1] = biological target: hPARG (C-terminal His6-tag) (Homo sapiens (Human), UniProt Q86W56); assay: PARG Enzymatic Activity Assay (HTRF); assay type: biochemical; conditions: hPARG 65 pM final, biotinylated-NAD ribosylated PARP1 8 nM final
Outline: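 Readout is time-resolved fluorescence at 620 and 665 nm after 60 min RT detection with streptavidin-Eu cryptate and anti-6HIS-XL665; IC50 by 4-parameter fit, 1% DMSO and no-enzyme controls. Reaction: 8 nM final ribosylated PARP1 substrate for 10 min RT, following 60 min RT enzyme (65 pM)–compound preincubation in Tris pH 7.4 buffer with EDTA, DTT, KCl.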

Kuramochi cell line = assay: Cell Viability Assay (Cell Titer-Glo, 7 days); assay type: cell-based; conditions: 168 h, Kuramochi cells, 7 days incubation, read-out: PARG Cell viability (IC50)
Outline: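 IC50 from a four-parameter fit of CellTiter-Glo luminescence, scaled between DMSO-treated (high) and medium-only (low) wells. Kuramochi cells (400/well, RPMI/10% FBS) exposed 7 days at 37 °C to 9 concentrations, 3-fold steps, in duplicate.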

hPARG (C-terminal His6-tag), sequence (Q86W56 whole entry): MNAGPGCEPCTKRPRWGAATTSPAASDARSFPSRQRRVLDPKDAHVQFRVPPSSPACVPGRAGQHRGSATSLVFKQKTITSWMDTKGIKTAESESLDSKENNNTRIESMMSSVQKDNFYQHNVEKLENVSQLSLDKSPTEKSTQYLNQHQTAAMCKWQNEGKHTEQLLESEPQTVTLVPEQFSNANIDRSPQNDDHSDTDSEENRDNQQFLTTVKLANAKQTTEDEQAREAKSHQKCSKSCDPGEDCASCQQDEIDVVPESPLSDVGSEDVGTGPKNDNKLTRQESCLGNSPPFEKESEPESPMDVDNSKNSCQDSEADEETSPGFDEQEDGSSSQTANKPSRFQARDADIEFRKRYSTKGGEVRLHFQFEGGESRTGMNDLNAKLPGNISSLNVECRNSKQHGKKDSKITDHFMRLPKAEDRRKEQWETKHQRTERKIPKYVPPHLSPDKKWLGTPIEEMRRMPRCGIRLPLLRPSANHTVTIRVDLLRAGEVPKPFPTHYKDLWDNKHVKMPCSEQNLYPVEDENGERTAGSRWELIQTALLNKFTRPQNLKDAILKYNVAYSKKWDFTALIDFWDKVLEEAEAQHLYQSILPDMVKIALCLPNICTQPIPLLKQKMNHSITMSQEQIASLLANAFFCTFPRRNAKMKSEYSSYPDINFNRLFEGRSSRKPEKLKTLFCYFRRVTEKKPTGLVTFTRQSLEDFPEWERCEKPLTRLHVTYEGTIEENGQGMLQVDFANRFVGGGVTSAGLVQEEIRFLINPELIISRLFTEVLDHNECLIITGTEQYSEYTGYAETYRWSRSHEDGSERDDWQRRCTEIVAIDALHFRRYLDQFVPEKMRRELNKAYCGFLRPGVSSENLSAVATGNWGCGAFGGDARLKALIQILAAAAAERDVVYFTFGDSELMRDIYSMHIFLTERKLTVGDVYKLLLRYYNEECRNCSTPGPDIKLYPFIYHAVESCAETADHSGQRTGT

Row | Compound | IC50 [1] | IC50 (Kuramochi cell line)
1 | CN(C)C(=O)c1ccc(-c2ncnc3c2c2ccc(S(=O)(=O)NC4(C#N)CC4)cc2n3-c2nnc(C(F)F)s2)cc1 [Example 43, 4-(7-(N-(1-Cyanocyclopropyl)sulfamoyl)-9-(5-(difluoromethyl)-1,3,4-thiadiazol-2-yl)-9H-pyrimido[4,5-b]indol-4-yl)-N,N-dimethylbenzamide] | < 0.1 µM | 0.1 to 1 µM
2 | C[C@@H](N)C(=O)N1CCC(c2ncnc3c2c2ccc(S(=O)(=O)NC4(C#N)CC4)cc2n3-c2nnc(C(F)F)s2)CC1 [Example 127, 4-(1-(D-Alanyl)piperidin-4-yl)-N-(1-cyanocyclopropyl)-9-(5-(difluoromethyl)-1,3,4-thiadiazol-2-yl)-9H-pyrimido[4,5-b]indole-7-sulfonamide] | < 0.1 µM | 0.1 to 1 µM
3 | C[C@@H]1CO[C@@H](C)CN1c1ncnc2c1c1ccc(S(=O)(=O)NC3(C#N)CC3)cc1n2-c1nnc(C(F)F)s1 [Example 200, N-(1-Cyanocyclopropyl)-9-(5-(difluoromethyl)-1,3,4-thiadiazol-2-yl)-4-((2S,5R)-2,5-dimethylmorpholino)-9H-pyrimido[4,5-b]indole-7-sulfonamide] | < 0.1 µM | < 0.1 µM
4 | CC1(NS(=O)(=O)c2ccc3c4c(C5CCN(C(=O)C(C)(C)O)CC5)ncnc4n(-c4nnc(C(F)F)s4)c3c2)CC1 [Example 94, 9-(5-(Difluoromethyl)-1,3,4-thiadiazol-2-yl)-4-(1-(2-hydroxy-2-methylpropanoyl)piperidin-4-yl)-N-(1-methylcyclopropyl)-9H-pyrimido[4,5-b]indole-7-sulfonamide] | < 0.1 µM | < 0.1 µM
5 | N#CC1(NS(=O)(=O)c2ccc3c4c(N5CCC6(CC5)COC6)ncnc4n(-c4nnc(C(F)F)s4)c3c2)CC1 [Example 20, N-(1-Cyanocyclopropyl)-9-(5-(difluoromethyl)-1,3,4-thiadiazol-2-yl)-4-(2-oxa-7-azaspiro[3.5]nonan-7-yl)-9H-pyrimido[4,5-b]indole-7-sulfonamide] | < 0.1 µM | < 0.1 µM
6 | N#CC1(NS(=O)(=O)c2ccc3c4c(C5=CCOCC5)ncnc4n(-c4nnc(C(F)F)s4)c3c2)CC1 [Example 78, N-(1-Cyanocyclopropyl)-9-(5-(difluoromethyl)-1,3,4-thiadiazol-2-yl)-4-(3,6-dihydro-2H-pyran-4-yl)-9H-pyrimido[4,5-b]indole-7-sulfonamide] | < 0.1 µM | 0.1 to 1 µM
7 | CN(C)C(=O)N1CC=C(c2ncnc3c2c2ccc(S(=O)(=O)NC4(C)CC4)cc2n3-c2nnc(C(F)F)s2)CC1 [Example 152, 4-(9-(5-(Difluoromethyl)-1,3,4-thiadiazol-2-yl)-7-(N-(1-methylcyclopropyl)sulfamoyl)-9H-pyrimido[4,5-b]indol-4-yl)-N,N-dimethyl-3,6-dihydropyridine-1(2H)-carboxamide] | < 0.1 µM | < 0.1 µM
8 | CN1CCN(c2ncnc3c2c2ccc(S(=O)(=O)NC4(C#N)CC4)cc2n3-c2nnc(C(F)F)s2)C[C@@H]1CF [Example 203, (R)—N-(1-Cyanocyclopropyl)-9-(5-(difluoromethyl)-1,3,4-thiadiazol-2-yl)-4-(3-(fluoromethyl)-4-methylpiperazin-1-yl)-9H-pyrimido[4,5-b]indole-7-sulfonamide] | < 0.1 µM | < 0.1 µM
9 | C[C@@H]1CN(C)[C@@H](C)CN1c1ncnc2c1c1ccc(S(=O)(=O)NC3(C#N)CC3)cc1n2-c1nnc(C(F)F)s1 [Example 193, N-(1-Cyanocyclopropyl)-9-(5-(difluoromethyl)-1,3,4-thiadiazol-2-yl)-4-((2R,5S)-2,4,5-trimethylpiperazin-1-yl)-9H-pyrimido[4,5-b]indole-7-sulfonamide] | < 0.1 µM | < 0.1 µM
10 | N#CC1(NS(=O)(=O)c2ccc3c4c(N5CCC(F)(F)CC5)ncnc4n(-c4nnc(C(F)F)s4)c3c2)CC1 [Example 52, N-(1-Cyanocyclopropyl)-9-(5-(difluoromethyl)-1,3,4-thiadiazol-2-yl)-4-(4,4-difluoropiperidin-1-yl)-9H-pyrimido[4,5-b]indole-7-sulfonamide] | 0.1 to 1 µM | 0.1 to 1 µM
11 | C[C@H]1CN(C(=O)N(C)C)CCN1c1ncnc2c1c1ccc(S(=O)(=O)NC3(C#N)CC3)cc1n2-c1nnc(C(F)F)s1 [Example 72, (S)-4-(7-(N-(1-Cyanocyclopropyl)sulfamoyl)-9-(5-(difluoromethyl)-1,3,4-thiadiazol-2-yl)-9H-pyrimido[4,5-b]indol-4-yl)-N,N,3-trimethylpiperazine-1-carboxamide] | 0.1 to 1 µM | 0.1 to 1 µM
12 | CO[C@H](C)C(=O)N1CCC(c2ncnc3c2c2ccc(S(=O)(=O)NC4(C#N)CC4)cc2n3-c2nnc(C(F)F)s2)CC1 [Example 109, (R)-N-(1-cyanocyclopropyl)-9-(5-(difluoromethyl)-1,3,4-thiadiazol-2-yl)-4-(1-(2-methoxypropanoyl)piperidin-4-yl)-9H-pyrimido[4,5-b]indole-7-sulfonamide] | < 0.1 µM | < 0.1 µM
13 | CC(C)C(=O)N1CCC(c2ncnc3c2c2cc(F)c(S(=O)(=O)NC4(C)CC4)cc2n3-c2nnc(C(F)F)s2)CC1 [Example 148, 9-(5-(Difluoromethyl)-1,3,4-thiadiazol-2-yl)-6-fluoro-4-(1-isobutyrylpiperidin-4-yl)-N-(1-methylcyclopropyl)-9H-pyrimido[4,5-b]indole-7-sulfonamide] | < 0.1 µM | < 0.1 µM
14 | COC[C@H]1CN(c2ncnc3c2c2ccc(S(=O)(=O)NC4(C#N)CC4)cc2n3-c2nnc(C(F)F)s2)CCN1C [Example 204, (R)—N-(1-Cyanocyclopropyl)-9-(5-(difluoromethyl)-1,3,4-thiadiazol-2-yl)-4-(3-(methoxymethyl)-4-methylpiperazin-1-yl)-9H-pyrimido[4,5-b]indole-7-sulfonamide] | < 0.1 µM | < 0.1 µM
15 | N#CC1(NS(=O)(=O)c2ccc3c4c(C5CCN(C(=O)N6CC[C@H](O)C6)CC5)ncnc4n(-c4nnc(C(F)F)s4)c3c2)CC1 [Example 130, (S)—N-(1-Cyanocyclopropyl)-9-(5-(difluoromethyl)-1,3,4-thiadiazol-2-yl)-4-(1-(3-hydroxypyrrolidine-1-carbonyl)piperidin-4-yl)-9H-pyrimido[4,5-b]indole-7-sulfonamide] | < 0.1 µM | 0.1 to 1 µM
16 | CC(C)C(=O)N1CCC(c2ncnc3c2c2ccc(S(=O)(=O)NC4(C#N)CC4)cc2n3-c2nnc(C(F)F)s2)CC1 [Example 76, N-(1-Cyanocyclopropyl)-9-(5-(difluoromethyl)-1,3,4-thiadiazol-2-yl)-4-(1-isobutyrylpiperidin-4-yl)-9H-pyrimido[4,5-b]indole-7-sulfonamide] | < 0.1 µM | < 0.1 µM
17 | C[C@@H]1CN(c2ncnc3c2c2ccc(S(=O)(=O)NC4(C#N)CC4)cc2n3-c2nnc(C(F)F)s2)CCO1 [Example 21, (R)-N-(1-cyanocyclopropyl)-9-(5-(difluoromethyl)-1,3,4-thiadiazol-2-yl)-4-(2-methylmorpholino)-9H-pyrimido[4,5-b]indole-7-sulfonamide] | < 0.1 µM | 0.1 to 1 µM
18 | N#CC1(NS(=O)(=O)c2ccc3c4c(C5CCN(C(=O)C6(O)CC6)CC5)ncnc4n(-c4nnc(C(F)F)s4)c3c2)CC1 [Example 114, N-(1-cyanocyclopropyl)-9-(5-(difluoromethyl)-1,3,4-thiadiazol-2-yl)-4-(1-(1-hydroxycyclopropane-1-carbonyl)piperidin-4-yl)-9H-pyrimido[4,5-b]indole-7-sulfonamide] | < 0.1 µM | 0.1 to 1 µM
19 | CC1(NS(=O)(=O)c2ccc3c4c(C5CCNCC5)ncnc4n(-c4nnc(C(F)F)s4)c3c2)CC1 [Example 93, 9-(5-(Difluoromethyl)-1,3,4-thiadiazol-2-yl)-N-(1-methylcyclopropyl)-4-(piperidin-4-yl)-9H-pyrimido[4,5-b]indole-7-sulfonamide] | < 0.1 µM | < 0.1 µM
20 | CCN1CCN(c2ncnc3c2c2ccc(S(=O)(=O)NC4(C#N)CC4)cc2n3-c2nnc(C(F)F)s2)C[C@@H]1C [Example 163, (S)-N-(1-cyanocyclopropyl)-9-(5-(difluoromethyl)-1,3,4-thiadiazol-2-yl)-4-(4-ethyl-3-methylpiperazin-1-yl)-9H-pyrimido[4,5-b]indole-7-sulfonamide] | 0.1 to 1 µM | < 0.1 µM
21 | C[C@H]1CN(c2ncnc3c2c2ccc(S(=O)(=O)NC4(C#N)CC4)cc2n3-c2nnc(C(F)F)s2)CCN1C(=O)N(C)C [Example 37, (S)-4-(7-(N-(1-Cyanocyclopropyl)sulfamoyl)-9-(5-(difluoromethyl)-1,3,4-thiadiazol-2-yl)-9H-pyrimido[4,5-b]indol-4-yl)-N,N,2-trimethylpiperazine-1-carboxamide] | < 0.1 µM | < 0.1 µM
22 | CN(C)C(=O)N1CCC(c2ncnc3c2c2ccc(S(=O)(=O)NC4(C#N)CC4)cc2n3-c2nnc(C(F)F)s2)CC1 [Example 88, 4-(7-(N-(1-Cyanocyclopropyl)sulfamoyl)-9-(5-(difluoromethyl)-1,3,4-thiadiazol-2-yl)-9H-pyrimido[4,5-b]indol-4-yl)-N,N-dimethylpiperidine-1-carboxamide] | < 0.1 µM | < 0.1 µM
23 | N#CC1(NS(=O)(=O)c2ccc3c4c(N5CCN(C(=O)C6CC6)CC5)ncnc4n(-c4nnc(C(F)(F)F)s4)c3c2)CC1 [Example 188, N-(1-Cyanocyclopropyl)-4-(4-(cyclopropanecarbonyl)piperazin-1-yl)-9-(5-(trifluoromethyl)-1,3,4-thiadiazol-2-yl)-9H-pyrimido[4,5-b]indole-7-sulfonamide] | < 0.1 µM | 0.1 to 1 µM
